One test has as its target GABA receptor sites. Description: displacement of 3H-muscimol from specific GABA receptor sites in mouse brain membranes. The following applies: read-out: Concentration of the test compound showing 50% inhibition of labelled ligand binding. Here is the method:
(§1) The novel compound prepared above was investigated for its potency in interaction with GABA receptor sites in BRAIN. As described in detail in Roberts et. al. J. Neuroscience, Vol. 1, No. 2, pp. 132-140 (1981), two experiments were performed: (1) the potency of the compound in displacing ^3 H-muscimol, a known GABA agonist, from specific GABA receptor sites in mouse brain membranes, and (2) the potency in displacing ^3 H-GABA from sodium-dependent GABA binding sites in mouse brain membranes, which reflects potency for the GABA reuptake inactivation process. […] This reflects very good potency for the compound prepared in Example 4.

For test [1], the target named is T1, sodium-dependent GABA binding sites (Mus musculus).
T1 construct: from tissue; host or cells: mouse brain membranes
The experiment in a line: displacement of 3H-GABA from sodium-dependent GABA binding sites in mouse brain membranes (GABA reuptake inactivation process). The following applies: read-out: Concentration of the test compound showing 50% inhibition of labelled ligand binding. Here is the method:
as §1
For orientation: Loss of bound radioactivity is the signal in a displacement assay; it reports binding, not function.

For `NCCC(C(=O)O)C1COC(=O)C1` (stereo not drawn) [Example 4, α-(2-aminoethyl)tetrahydro-5-oxo-3-furan acetic acid], the IC50 at GABA receptor sites is 2.1 µM; in test [1], 25 µM.

The record behind these values is US4880924A, “Novel compounds and use thereof in selective cyclization process” (Nelson Research & Development Co., priority 1986, dated 1989).
